Data: PMC6100046, “Plasma Pharmacokinetic Determination of Canagliflozin and Its Metabolites in a Type 2 Diabetic Rat Model by UPLC-MS/MS” (Molecules : A Journal of Synthetic Chemistry and Natural …, 2018)
Read-outs that look alike come from different tables or passages of the source.

What was measured:
[1] = Stability of canagliflozin in rat plasma samples (QC samples); assay type: in vitro ADME; settings: for Concentration found after storage (Mean ± SD): rat plasma, n = 5
Method: High, medium and low levels of QC concentrations were used to evaluate the stability of canagliflozin in plasma under the experimental conditions.
The specificity of the method was evaluated by comparing the chromatography of rat blank plasma samples with blank rat plasma spiked with standards at high, medium, low concentrations including LLOQ and rat plasma samples after oral administration of canagliflozin. The intra-day accuracy and precision were determined by analyzing five replicates of the QC samples at high, medium, and low concentrations within one day, while the inter-day accuracy and precision were conducted by determining five replicates of four levels of QCs on 3 separate days. The assay’s accuracy was represented by the […]. The precision was represented as the relative standard deviation (RSD) of the replicates. The matrix effect was determined by dividing the peak areas of canagliflozin spiked into extracted blank plasma by that of the analyte spiked in the mobile phase. The extraction recovery of canagliflozin and IS was assessed by comparing the peak areas of extracted plasma. […] […] The freeze (−80 °C)–thaw (room temperature) stability of the analytes in rat plasma was tested via three freeze–thaw cycles. […] In regard to the storage stability, the QC samples were prepared and stored at −80 °C for 30 days.

[2] = Plasma pharmacokinetics of canagliflozin and its metabolites after oral administration to CTRL and type 2 diabetic (DM) rats, UPLC-MS/MS; assay type: in vivo, rat; settings: for AUC(0-inf) / Tmax / MRT last / half-life / Cmax: po; for AUC(0-inf): AUC0–∞, heading: AUC0–∞; for MRT last: read-out: MRT0–t; for half-life: read-out: t1/2z (converted); for Cmax: metabolites semi-quantitative; for Concentration of metabolite in rat plasma (in words): rat plasma after canagliflozin, UPLC-TOF-MS/MS identification
Description: The determination of metabolite concentrations was done by a semi-quantitative analysis method: the peak area of the metabolites was divided by the peak area of the original drug and then multiplied by the concentration of original drug.
The type 2 diabetic model was developed using a combination of a high-fat diet (HFD) and low-dose STZ injection. Briefly, rats were randomized into CTRL (control) and DM (diabetes mellitus) groups. The CTRL rats received a standard diet, whereas DM rats were fed high-fat food, which consisted of 63.5–66.5% normal chow, 1% cholesterol, 0.5% sodium cholate, 10% yolk, 12–15% lard, and 10% sucrose. DM rats were given an intraperitoneal injection of STZ (35 mg/kg, dissolved in citrate buffer, pH 4.5) after 4 weeks of dietary alteration, and CTRL rats received an equivalent injection of citrate buffer only. The blood glucose concentrations, food intake, and body weights of the rats were monitored weekly. Rats with non-fasting blood glucose levels lower than 16.67 mmol/L (300 mg/dL) were excluded from the DM group. Biochemical parameters (serum triglycerides, serum total cholesterol, and insulin) were measured on day 28 after the injection of STZ. The homeostasis model assessment of insulin resistance (HOMA-IR) was calculated by a standard equation to examine insulin sensitivity. The following experiments were performed on day 35 after STZ injection.
We performed the pharmacokinetic studies of canagliflozin after oral administration by gavage, and all rats used in this research were fasted for 12 h before dosing. CTRL and DM group rats (5 rats in each group) received a dose of canagliflozin at 20 mg/kg that was suspended in 0.5% sodium carboxymethylcellulose. A blood quantity of less than 0.3 mL was sampled via the oculi chorioideae vein after administration of canagliflozin at 1, 2, 3, 4, 5, 6, 7, 8, 10, 12, 24, 36 and 48 h under light ether anesthesia. All blood samples were immediately centrifuged at 5000 rpm for 10 min and the plasma was collected and frozen at −40 °C until analysis.
The acquisition software used were Analyst TF 1.7.1 software and Analyst software (AB Sciex, Redwood city, CA, USA). The pharmacokinetic parameters were processed by non-compartmental analysis using DAS 2.1.1 software (Mathematical Pharmacology Professional Committee of China, Shanghai, China). Data are presented as means ± SDs. Statistical differences were evaluated by Student’s t-test. A p-value of less than 0.05 indicated a statistically significant difference (SPSS 18.0 software, SPSS Inc., Chicago, IL, USA).

[3] = rat, plasma, 20 mg/kg, CTRL rats, canagliflozin 20 mg/kg oral, mean ± SD, n = 5
[4] = rat, plasma, 20 mg/kg, DM (type 2 diabetic) rats, canagliflozin 20 mg/kg oral, mean ± SD, n = 5

**Q.** Which “Stability in rat plasma (in words)” value ([1]; auto-sampler temperature (4 °C), 24 h) does the source give for `Cc1ccc([C@@H]2O[C@H](CO)[C@@H](O)[C@H](O)[C@H]2O)cc1Cc1ccc(-c2ccc(F)cc2)s1` [Canagliflozin] here?
**A.** The value was “good stability”.

**Q.** And the Concentration found after storage (Mean ± SD) ([1]; autosampler (4 °C) for 24 h, nominal concentration 25)?
**A.** The Concentration found after storage (Mean ± SD) was 25.7 ± 0.33 ng/mL.

**Q.** What about the Concentration found after storage (Mean ± SD) ([1]; autosampler (4 °C) for 24 h, nominal concentration 500) of the same molecule?
**A.** Its Concentration found after storage (Mean ± SD) is 503.1 ± 4.41 ng/mL.

**Q.** What about the Concentration found after storage (Mean ± SD) ([1]; autosampler (4 °C) for 24 h, nominal concentration 800) of the same molecule?
**A.** The Concentration found after storage (Mean ± SD) was 806.8 ± 5.64 ng/mL.

**Q.** What about the Concentration found after storage (Mean ± SD) ([1]; room temperature (25 °C) for 24 h, nominal concentration 25) of the same molecule?
**A.** The Concentration found after storage (Mean ± SD) was 26.2 ± 0.96 ng/mL.

**Q.** What about the Concentration found after storage (Mean ± SD) ([1]; room temperature (25 °C) for 24 h, nominal concentration 500) of the same molecule?
**A.** Its Concentration found after storage (Mean ± SD) is 504.4 ± 3.18 ng/mL.

**Q.** What about the Concentration found after storage (Mean ± SD) ([1]; room temperature (25 °C) for 24 h, nominal concentration 800) of the same molecule?
**A.** The Concentration found after storage (Mean ± SD) was 807.3 ± 6.12 ng/mL.

**Q.** What about the Concentration found after storage (Mean ± SD) ([1]; three freeze–thaw cycles (each at −80 °C for 24 h), nominal concentration 25) of the same molecule?
**A.** The Concentration found after storage (Mean ± SD) was 26 ± 1.02 ng/mL.

**Q.** And the Concentration found after storage (Mean ± SD) ([1]; three freeze–thaw cycles (each at −80 °C for 24 h), nominal concentration 500)?
**A.** Its Concentration found after storage (Mean ± SD) is 505.2 ± 4.12 ng/mL.

**Q.** What about the Concentration found after storage (Mean ± SD) ([1]; three freeze–thaw cycles (each at −80 °C for 24 h), nominal concentration 800) of the same molecule?
**A.** The Concentration found after storage (Mean ± SD) was 806.2 ± 4.19 ng/mL.

**Q.** What about the Concentration found after storage (Mean ± SD) ([1]; −80 °C for 30 days, nominal concentration 25) of the same molecule?
**A.** Its Concentration found after storage (Mean ± SD) is 26.9 ± 0.85 ng/mL.

**Q.** And the Concentration found after storage (Mean ± SD) ([1]; −80 °C for 30 days, nominal concentration 500)?
**A.** The Concentration found after storage (Mean ± SD) was 504.3 ± 2.14 ng/mL.

**Q.** What about the Concentration found after storage (Mean ± SD) ([1]; −80 °C for 30 days, nominal concentration 800) of the same molecule?
**A.** The Concentration found after storage (Mean ± SD) was 806.3 ± 3.51 ng/mL.

**Q.** What about the “Stability in rat plasma (in words)” value ([1]; room temperature (25 °C) for 24 h) of the same molecule?
**A.** Its value is “stable”.

**Q.** What about the “Stability in rat plasma (in words)” value ([1]; storage conditions (−80 °C) for at least 30 days) of the same molecule?
**A.** The value was “stable”.

**Q.** What about the “Stability in rat plasma (in words)” value ([1]; −80 °C followed by three freeze and thaw cycles) of the same molecule?
**A.** Its value is “good stability”.

**Q.** And the CL/F ([2]; rat, plasma, 20 mg/kg, heading: CLz/F, CTRL rats, canagliflozin 20 mg/kg oral, mean ± SD, n = 5)?
**A.** The CL/F was 5.96 mL/min/kg.

**Q.** And the AUC(0-inf) ([2]; rat, plasma, 20 mg/kg, CTRL rats, canagliflozin 20 mg/kg oral, plasma, mean ± SD, n = 5)?
**A.** The AUC(0-inf) was 56300 ng·h/mL.

**Q.** What about the AUC(0-inf) ([2]; rat, plasma, 20 mg/kg, DM (type 2 diabetic) rats, canagliflozin 20 mg/kg oral, plasma, mean ± SD, n = 5) of the same molecule?
**A.** Its AUC(0-inf) is 28400 ng·h/mL.

**Q.** And the Tmax [2, 3]?
**A.** Its Tmax is 3.6 ± 0.89 h.

**Q.** What about the MRT last [2, 3] of the same molecule?
**A.** Its MRT last is 14.1 ± 1.58 h.

**Q.** And the half-life [2, 3]?
**A.** The half-life was 12.9 ± 2.64 h.

**Q.** What about the Cmax [2, 3] of the same molecule?
**A.** Its Cmax is 3310 ± 566 ng/mL.

**Q.** And the Cmax [2, 4]?
**A.** Its Cmax is 2230 ± 559 ng/mL.

**Q.** And the Tmax [2, 4]?
**A.** The Tmax was 3.2 ± 0.45 h.

**Q.** What about the MRT last [2, 4] of the same molecule?
**A.** Its MRT last is 12.3 ± 2.77 h.

**Q.** And the half-life [2, 4]?
**A.** Its half-life is 10.2 ± 3.49 h.

**Q.** What does the source list for `Cc1ccc(C2OC(CO)C(O)C(O)C2OC2OC(C(=O)O)C(O)C(O)C2O)cc1Cc1ccc(-c2ccc(F)cc2)s1` (stereo not shown) [M5]?
**A.** Concentration of metabolite in rat plasma (in words) [2]: high; Tmax [2, 3]: 1.8 ± 0.84 h; half-life [2, 3]: 14.6 ± 18.3 h; Cmax [2, 3]: 126 ± 31.1 ng/mL; Cmax [2, 4]: 160 ± 54.4 ng/mL; Tmax [2, 4]: 1.67 ± 0.58 h; half-life [2, 4]: 13.3 ± 6.25 h

**Q.** With `Cc1ccc(C2OC(CO)C(O)C(OC3OC(C(=O)O)C(O)C(O)C3O)C2O)cc1Cc1ccc(-c2ccc(F)cc2)s1` (stereo not shown) [M7] as the molecule, how does the “Concentration of metabolite in rat plasma (in words)” value (shortened to “Concentration of metabolite”) [2] read?
**A.** The value was “high”.

**Q.** And the Tmax [2, 3]?
**A.** The Tmax was 2.02 ± 0.11 h.

**Q.** What about the half-life [2, 3] of the same molecule?
**A.** The half-life was 10 ± 6.45 h.

**Q.** What about the Cmax [2, 3] of the same molecule?
**A.** The Cmax was 44.9 ± 20.5 ng/mL.

**Q.** And the Cmax [2, 4]?
**A.** Its Cmax is 90.6 ± 18.7 ng/mL.

**Q.** And the Tmax [2, 4]?
**A.** Its Tmax is 1.81 ± 0.12 h.

**Q.** What about the half-life [2, 4] of the same molecule?
**A.** The half-life was 14.5 ± 4.86 h.

**Q.** For `OCc1ccc([C@@H]2O[C@H](CO)[C@@H](O)[C@H](O)[C@H]2O)cc1Cc1ccc(-c2ccc(F)cc2)s1` [M8], which “Concentration of metabolite” value [2] is on record?
**A.** Its value is “almost too low to quantify”.

**Q.** For `Cc1ccc(C2OC(CO)C(O)C(O)C2O)cc1C(O)c1ccc(-c2ccc(F)cc2)s1` (stereo not shown) [M9], which “Concentration of metabolite” value [2] is on record?
**A.** Its value is “high”.

**Q.** And the Tmax [2, 3]?
**A.** The Tmax was 5.01 ± 0.11 h.

**Q.** What about the half-life [2, 3] of the same molecule?
**A.** The half-life was 10.7 ± 1.63 h.

**Q.** And the Cmax [2, 3]?
**A.** The Cmax was 97.5 ± 10.8 ng/mL.

**Q.** And the Cmax [2, 4]?
**A.** Its Cmax is 161 ± 10.5 ng/mL.

**Q.** What about the Tmax [2, 4] of the same molecule?
**A.** The Tmax was 4.75 ± 0.5 h.

**Q.** And the half-life [2, 4]?
**A.** Its half-life is 12.8 ± 8.81 h.
